Assay: recombinant barcode read abundance after kanamycin selection (control-corrected) (log10(CPM+1)); higher = more efficient recombination; sequences stand for … in AGTGCAGAGAAAATCGGCCAGTTTTCTCTGCCTGCAGTCCGCATGCCGT…AGATTTATGCAGCGGACTGCCTTTCTCCCAAAGTGATAAACCGGACAGTATCATGGACCGGTTTTCCCGGTAATCCGTATTTGCAAGGTTGGTTTCACT; site = the 11-nt target
Summary of the method: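 Targets were screened in pooled form in E. coli against IS621 bridge RNA target-binding loops. Recombination efficiency is based on barcode counts at recombinant junctions in counts per million, averaged and corrected for the control. Numbers are shown as log10(CPM+1), with duplicate plates on chloramphenicol/ampicillin LB agar (control) or chloramphenicol/ampicillin/kanamycin with 0.1 mM IPTG.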
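Also: IS621 recombinase and bridge RNA in Escherichia coli cells.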

“GAGTTTCCTTGGGTTCTAACCTGTTGCGT (site GAGTTCCCTAC)” and “GAGCGGCCTTGGGTTCTAACCTGTTGCAG (site ATTTAAGCTAG)” are within 0.2 log units of each other in “recombinant barcode read abundance (log10)” value: 0.278 for the first, 0.224 for the second.

Compared with “TGTCGGACTTGGGTTCTAACCTGTTGCAT (site TGTCGGACTTT)”, “ACGATCGCTTGGGTTCTAACCTGTTGCCT (site ACGATCGCTAG)” is higher in “recombinant barcode read abundance (log10)” value: 0.0384 for the first, 1.25 for the second.

Compared with “GGTTACACTTGGGTTCTAACCTGTTGCCT (site GGATACACTAG)”, “GACCCTACTTGGGTTCTAACCTGTTGCCT (site CACCCTACTAG)” is higher in “recombinant barcode read abundance (log10)” value: 0.0395 for the first, 0.375 for the second.

First: ATGGTCCCTTGGGTTCTAACCTGTTGCCT (site ATGGTCCCTAG)
Second: TGTAATGCTTGGGTTCTAACCTGTTGCCT (site TGTAATGCTAG)
The “recombinant barcode read abundance (log10)” value of the first is higher: 3.16 for the first, 0.912 for the second.

Going from “ACGGGATCTTGGGTTCTAACCTGTTGCCT (site ACGGGATCTAG)” to “CGGGGTTCTTGGGTTCTAACCTGTTGCCT (site CAGGGTTCTAG)”, the “recombinant barcode read abundance (log10)” value falls from 1.57 to 0.321.

Compared with “CAGAGCCCTTGGGTTCTAACCTGTTGCTG (site CAGAGCCCTCA)”, “GGGTCCACTTGGGTTCTAACCTGTTGCCT (site GGGTCCACTAA)” is lower in “recombinant barcode read abundance (log10)” value: 1.84 for the first, 0.481 for the second.

Compared with “GTCTAATCTTGGGTTCTAACCTGTTGCCT (site GTCTAATCTAG)”, “CGAAGATCTTGGGTTCTAACCTGTTGCCT (site CTAAGATCTAG)” is lower in “recombinant barcode read abundance (log10)” value: 0.719 for the first, 0.069 for the second.

“ACGCGAGCTTGGGTTCTAACCTGTTGCCG (site ACGCGAGCTCG)” and “GCCCGAACTTGGGTTCTAACCTGTTGCCT (site GCACGAACTAG)” are within 0.2 log units of each other in “recombinant barcode read abundance (log10)” value: 0.288 for the first, 0.141 for the second.

“GTATGATCTTGGGTTCTAACCTGTTGCCT (site GTATGACCTAG)” and “TAGGCATCTTGGGTTCTAACCTGTTGCTC (site TAGTCATCTGA)” are within 0.2 log units of each other in “recombinant barcode read abundance (log10)” value: 0.0755 for the first, 0.115 for the second.

First: GTAGCACCTTGGGTTCTAACCTGTTGCTT (site GTATGACCTAA)
Second: AGTAGTGCTTGGGTTCTAACCTGTTGCCT (site ACTAGTGCTAG)
The “recombinant barcode read abundance (log10)” value of the first is higher: 0.323 for the first, 0.0779 for the second.

“GGTACGACTTGGGTTCTAACCTGTTGCAG (site GGTACGCCTAT)” and “ACTTTCCCTTGGGTTCTAACCTGTTGCCT (site ACTTTCCCTAG)” are within 0.2 log units of each other in “recombinant barcode read abundance (log10)” value: 0.336 for the first, 0.424 for the second.

Going from “CCGGTGACTTGGGTTCTAACCTGTTGCCT (site TCGGTGACTAG)” to “AACCTAGCTTGGGTTCTAACCTGTTGCTA (site AACCTAGCTTA)”, the “recombinant barcode read abundance (log10)” value rises from 0.0596 to 0.395.

Going from “AAATCCTCTTGGGTTCTAACCTGTTGCCT (site AAATCCTCTAG)” to “TGCTCGGCTTGGGTTCTAACCTGTTGCCT (site TGCTCGGCTAG)”, the “recombinant barcode read abundance (log10)” value falls from 1.04 to 0.0603.

“CCACTTCCTTGGGTTCTAACCTGTTGCCT (site CCACTCCCTAG)” and “GCCCTATCTTGGGTTCTAACCTGTTGCCT (site GCCCCATCTAG)” are within 0.2 log units of each other in “recombinant barcode read abundance (log10)” value: 0.176 for the first, 0.107 for the second.

“CACTTATCTTGGGTTCTAACCTGTTGCCT (site CACTTATCTAG)” and “GAGGACTCTTGGGTTCTAACCTGTTGCCC (site GAGGACTCTTG)” are within 0.2 log units of each other in “recombinant barcode read abundance (log10)” value: 0.549 for the first, 0.682 for the second.

Compared with “ATCCGCTCTTGGGTTCTAACCTGTTGCCT (site TTCCGCTCTAG)”, “ACGCGAGCTTGGGTTCTAACCTGTTGCTG (site ACGCGAGCTCT)” is lower in “recombinant barcode read abundance (log10)” value: 0.771 for the first, 0.187 for the second.

First: TGAGTGCCTTGGGTTCTAACCTGTTGCTT (site TGAGTACCTAA)
Second: AGCCTTACTTGGGTTCTAACCTGTTGCCT (site AACCTTACTAG)
The “recombinant barcode read abundance (log10)” value of the first is higher: 0.682 for the first, 0.106 for the second.

First: GCGGCGACTTGGGTTCTAACCTGTTGCCT (site GCCGCGACTAG)
Second: GCACGCCCTTGGGTTCTAACCTGTTGCCT (site GCACGCCCTAG)
The “recombinant barcode read abundance (log10)” value of the first is lower: 0.162 for the first, 0.711 for the second.

Compared with “GATTGGACTTGGGTTCTAACCTGTTGCTT (site CATTGGACTAA)”, “CTAAAAGCTTGGGTTCTAACCTGTTGCCA (site TACTCCTCTCC)” is lower in “recombinant barcode read abundance (log10)” value: 0.421 for the first, 0.0219 for the second.

“GATTCTTCTTGGGTTCTAACCTGTTGCCT (site GATTCTTCTAG)” and “AGTTCTCCTTGGGTTCTAACCTGTTGCCG (site AGTTCTCCTCG)” are within 0.2 log units of each other in “recombinant barcode read abundance (log10)” value: 0.1 for the first, 0.0496 for the second.

Compared with “CGCCTCCCTTGGGTTCTAACCTGTTGCCT (site CGCCTCGCTAG)”, “GAAGACGCTTGGGTTCTAACCTGTTGCCT (site GAAGCCGCTAG)” is higher in “recombinant barcode read abundance (log10)” value: 0 for the first, 0.315 for the second.

“TCGTGTTCTTGGGTTCTAACCTGTTGCTA (site TCGTGTTCTTA)” and “AGTCTAGCTTGGGTTCTAACCTGTTGCCC (site AGTCTAGCTTG)” are within 0.2 log units of each other in “recombinant barcode read abundance (log10)” value: 0.0576 for the first, 0.149 for the second.

Compared with “CACAAACCTTGGGTTCTAACCTGTTGCAG (site CACAAACCTCT)”, “CCAAGATCTTGGGTTCTAACCTGTTGCCT (site CGAAGATCTAG)” is lower in “recombinant barcode read abundance (log10)” value: 1.17 for the first, 0.201 for the second.

Compared with “TTGGGCGCTTGGGTTCTAACCTGTTGCCT (site TTGGTCGCTAG)”, “ACTCCGTCTTGGGTTCTAACCTGTTGCTA (site ACTCCGTCTTA)” is higher in “recombinant barcode read abundance (log10)” value: 0.0335 for the first, 1.11 for the second.

First: ATCACTACTTGGGTTCTAACCTGTTGCCT (site CTTACTACTAG)
Second: CAGGCCACTTGGGTTCTAACCTGTTGCCT (site CTGGCCACTAG)
The “recombinant barcode read abundance (log10)” value of the first is lower: 0.0823 for the first, 0.357 for the second.

“TCCCAAGCTTGGGTTCTAACCTGTTGCTA (site TCCTAAGCTTA)” and “GAGTGGCCTTGGGTTCTAACCTGTTGCGT (site GAGTGGCCTAA)” are within 0.2 log units of each other in “recombinant barcode read abundance (log10)” value: 0.141 for the first, 0.314 for the second.

“GGGGCGACTTGGGTTCTAACCTGTTGCCT (site GGGGCGGCTAG)” and “TATTGGACTTGGGTTCTAACCTGTTGCAG (site TATTGGACTAT)” are within 0.2 log units of each other in “recombinant barcode read abundance (log10)” value: 0.13 for the first, 0.264 for the second.

Compared with “TACCCACCTTGGGTTCTAACCTGTTGCAG (site TACCCACCTCT)”, “GCACCACCTTGGGTTCTAACCTGTTGCCT (site GCACTACCTAG)” is lower in “recombinant barcode read abundance (log10)” value: 2.41 for the first, 0.127 for the second.

Going from “CGTGCGGCTTGGGTTCTAACCTGTTGCCT (site CGTGCGGCTAG)” to “TTCGGAGCTTGGGTTCTAACCTGTTGCTG (site TTCGGAGCTCA)”, the “recombinant barcode read abundance (log10)” value rises from 0.486 to 1.56.

First: CTGCCCTCTTGGGTTCTAACCTGTTGCCT (site CAGCCCTCTAG)
Second: GTCCACTCTTGGGTTCTAACCTGTTGCTT (site GTCCACTCTAA)
The “recombinant barcode read abundance (log10)” value of the first is lower: 0.932 for the first, 1.46 for the second.

Compared with “CGCCATCCTTGGGTTCTAACCTGTTGCAT (site CGCCTTCCTAT)”, “AAGTCTCCTTGGGTTCTAACCTGTTGCAG (site GCAATATCTAG)” is lower in “recombinant barcode read abundance (log10)” value: 0.569 for the first, 0.116 for the second.

“TTGGCGCCTTGGGTTCTAACCTGTTGCCT (site TCGGCTCCTAG)” and “GGGCCTTCTTGGGTTCTAACCTGTTGCAT (site GGGTCTTCTAT)” are within 0.2 log units of each other in “recombinant barcode read abundance (log10)” value: 0.0935 for the first, 0.0646 for the second.

Going from “AAACCACCTTGGGTTCTAACCTGTTGCCT (site AGACCACCTAG)” to “GCAGGGACTTGGGTTCTAACCTGTTGCCT (site GTAGGGACTAG)”, the “recombinant barcode read abundance (log10)” value rises from 0.276 to 1.02.

First: TTGGCGCCTTGGGTTCTAACCTGTTGCCT (site TTGGCGCCTAG)
Second: ATTTCCACTTGGGTTCTAACCTGTTGCCT (site AAGTCCACTAG)
The “recombinant barcode read abundance (log10)” value of the first is higher: 0.529 for the first, 0.176 for the second.

Compared with “GAGAGCACTTGGGTTCTAACCTGTTGCCA (site GAGAGCACTTG)”, “CGTTCAACTTGGGTTCTAACCTGTTGCCT (site CGTTCCACTAG)” is lower in “recombinant barcode read abundance (log10)” value: 1.23 for the first, 0.0618 for the second.

“GTAGGTCCTTGGGTTCTAACCTGTTGCCG (site TACAACACTAC)” and “GGGGCCTCTTGGGTTCTAACCTGTTGCAG (site GGTGCCTCTAT)” are within 0.2 log units of each other in “recombinant barcode read abundance (log10)” value: 0.0369 for the first, 0.213 for the second.

Going from “TAGTTGTCTTGGGTTCTAACCTGTTGCTT (site TAGTTGTCTAA)” to “GGGGACCCTTGGGTTCTAACCTGTTGCGC (site GGGGACCCTCC)”, the “recombinant barcode read abundance (log10)” value falls from 0.569 to 0.0282.

First: ACAGGTCCTTGGGTTCTAACCTGTTGCGA (site GTCATGTCTCA)
Second: CACCCTTCTTGGGTTCTAACCTGTTGCTC (site CACCCTTCTGA)
The “recombinant barcode read abundance (log10)” value of the first is lower: 0 for the first, 1.94 for the second.

Compared with “AGGAGCCCTTGGGTTCTAACCTGTTGCTA (site AGGAGCCCTTA)”, “TTACGTACTTGGGTTCTAACCTGTTGCCT (site CTACGTACTAG)” is lower in “recombinant barcode read abundance (log10)” value: 1.38 for the first, 0.193 for the second.

“GGCTCCTCTTGGGTTCTAACCTGTTGCCT (site TGCTCCTCTAG)” and “ACGCGAGCTTGGGTTCTAACCTGTTGCCG (site ACGCGAGCTCA)” are within 0.2 log units of each other in “recombinant barcode read abundance (log10)” value: 0.0949 for the first, 0.209 for the second.

Going from “TATTCTCCTTGGGTTCTAACCTGTTGCTT (site TATTCTCCTAC)” to “GTCCGTCCTTGGGTTCTAACCTGTTGCGT (site GTCCGTCCTAC)”, the “recombinant barcode read abundance (log10)” value rises from 0.0156 to 1.69.

Compared with “TAGTTCACTTGGGTTCTAACCTGTTGCCA (site TAGTTGACTTG)”, “TAGTTAGCTTGGGTTCTAACCTGTTGCCT (site TAGTTAGCTAG)” is higher in “recombinant barcode read abundance (log10)” value: 0.0545 for the first, 0.756 for the second.

Compared with “AACTGATCTTGGGTTCTAACCTGTTGCCT (site AACTTATCTAG)”, “AGAGAGACTTGGGTTCTAACCTGTTGCCT (site AGAGGGACTAG)” is higher in “recombinant barcode read abundance (log10)” value: 0.038 for the first, 0.27 for the second.
